Laboratory results taken from patent publication EP1444982A1, “The use of purine derivatives as selective kinase inhibitors” (MERCKLE GMBH, priority 2003, dated 2004).

Columns and labels:
Format in all cases: biochemical
[1] = target: c-RAF (h) (Homo sapiens, UniProt P04049); assay: Kinase inhibition assay (33P-ATP, P30 filter, scintillation counting): c-RAF; details: 40 min; 30µM Testsubstanz (100 µM ATP); read-out: Hemmung von Kinasen in % c-RAF (h)
Method: (§1) Alle Kinasen werden auf zehnfache Arbeitskonzentration vor Anwendung in dem Essay verdünnt. Die Zusammensetzung des Verdünnungspuffers ist für jede Kinase in der nachfolgenden Tabelle angegeben.
(§2) Alle Substrate werden gelöst und auf eine Stammlösung in entsalztem Wasser verdünnt.
(§3) c-RAF (ha)(5-10 mU) in einem Endreaktionsvolumen von 25 µl wird mit 25 mM Tris pH 7.5,.0.02 mM EGTA, 0.66 mg/ml Myelin-Basisprotein, 10 mM MgAcetat und [γ-^33P-ATP] inkubiert (spezifische Aktivität etwa 50 cpm/pmol, Konzentration wie erforderlich). Die Reaktion wird durch Zugabe von Mg^2+[γ-^33P-ATP] initiiert. Nach 40-minütiger Inkubation bei Raumtemperatur wird die Reaktion durch Zugabe von 5 µl einer 3 %igen Phosphorsäurelösung gestoppt. 10 µl der Reaktion werden dann auf ein P30-Filter gegeben und dreimal jeweils 5 Minuten in 50 mM Phosphorsäure und einmal in Methanol gewaschen. Anschließend wird getrocknet und eine Szintillationszählung durchgeführt.

[2] = target: GSK3β (h) (Homo sapiens, UniProt P49841); assay: Kinase inhibition assay (33P-ATP, P30 filter, scintillation counting): GSK3β; details: 30µM Testsubstanz (100 µM ATP); read-out: Hemmung von Kinasen in % GSK3β (h)
Sequence of GSK3β (h) (P49841 whole entry): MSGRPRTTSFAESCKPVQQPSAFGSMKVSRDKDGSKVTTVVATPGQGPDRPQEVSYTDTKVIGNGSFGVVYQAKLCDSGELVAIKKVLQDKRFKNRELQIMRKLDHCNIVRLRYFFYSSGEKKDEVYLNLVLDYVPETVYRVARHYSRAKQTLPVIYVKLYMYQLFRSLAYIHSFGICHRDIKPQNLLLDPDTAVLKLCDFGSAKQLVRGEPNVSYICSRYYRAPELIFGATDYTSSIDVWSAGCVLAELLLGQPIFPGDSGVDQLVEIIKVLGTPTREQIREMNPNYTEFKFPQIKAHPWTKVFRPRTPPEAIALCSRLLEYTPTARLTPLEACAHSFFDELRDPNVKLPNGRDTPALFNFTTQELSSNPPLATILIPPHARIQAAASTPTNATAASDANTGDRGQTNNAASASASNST
Method: as §1, §2
as §3, with “GSK3β (h)(5-10mU) in” for “c-RAF (ha)(5-10 mU) in”, “mit 8” for “mit 25”, “mM MOPS” for “mM Tris”, “pH 7.0, 0.2” for “pH 7.5,.0.02”, “mM EDTA, 20 µM […](p) EDEEE (phospho GS2 Peptid),” for “mM EGTA, 0.66 mg/ml Myelin-Basisprotein,”, “etwa 500” for “etwa 50”

[3] = target: JNK3 (r) (Rattus norvegicus, UniProt P49187); assay: Kinase inhibition assay: JNK3; details: 30µM Testsubstanz (100 µM ATP); read-out: Hemmung von Kinasen in % JNK3 (r)
Sequence of JNK3 (r) (P49187 whole entry): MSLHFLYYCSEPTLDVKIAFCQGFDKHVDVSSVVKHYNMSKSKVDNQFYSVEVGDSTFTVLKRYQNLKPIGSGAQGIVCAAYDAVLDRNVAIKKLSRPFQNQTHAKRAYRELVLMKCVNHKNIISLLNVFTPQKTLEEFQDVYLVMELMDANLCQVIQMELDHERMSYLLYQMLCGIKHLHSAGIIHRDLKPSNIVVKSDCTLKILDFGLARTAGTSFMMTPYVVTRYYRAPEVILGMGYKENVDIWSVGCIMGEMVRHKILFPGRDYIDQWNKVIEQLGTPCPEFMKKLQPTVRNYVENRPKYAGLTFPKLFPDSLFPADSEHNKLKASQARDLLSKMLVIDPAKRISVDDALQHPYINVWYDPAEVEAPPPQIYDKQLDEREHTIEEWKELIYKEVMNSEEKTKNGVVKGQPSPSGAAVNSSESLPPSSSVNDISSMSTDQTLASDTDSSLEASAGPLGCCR
Description: as §1, §2

[4] = target: Lck (h) (Homo sapiens, UniProt P06239); assay: Kinase inhibition assay (33P-ATP, P30 filter, scintillation counting): Lck; details: 30µM Testsubstanz (100 µM ATP); read-out: Hemmung von Kinasen in % Lck (h)
Sequence of Lck (h) (P06239 whole entry): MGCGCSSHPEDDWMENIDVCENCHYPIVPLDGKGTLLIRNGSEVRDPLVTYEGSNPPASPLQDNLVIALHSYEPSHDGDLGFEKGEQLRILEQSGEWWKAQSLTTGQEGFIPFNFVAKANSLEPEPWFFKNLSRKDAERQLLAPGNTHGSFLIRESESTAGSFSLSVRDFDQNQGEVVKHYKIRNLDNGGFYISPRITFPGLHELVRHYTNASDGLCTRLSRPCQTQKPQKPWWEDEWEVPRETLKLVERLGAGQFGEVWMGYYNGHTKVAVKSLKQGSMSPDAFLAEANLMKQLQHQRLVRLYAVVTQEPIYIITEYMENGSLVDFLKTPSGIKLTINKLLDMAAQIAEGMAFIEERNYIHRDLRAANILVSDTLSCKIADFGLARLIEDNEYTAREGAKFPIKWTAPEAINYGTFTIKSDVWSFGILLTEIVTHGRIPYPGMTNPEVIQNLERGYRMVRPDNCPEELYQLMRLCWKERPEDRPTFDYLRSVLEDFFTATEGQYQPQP
Method: as §1, §2
as §3, with “Lck (h)(5-10 mU)” for “c-RAF (ha)(5-10 mU)”, “mit 50” for “mit 25”, “pH 7.5, 0.1” for “pH 7.5,.0.02”, “EGTA, 0.1 mM NaVanadate, 250 µM KVEKIGEGTYGVVYK (Cdc2 Peptid),” for “EGTA, 0.66 mg/ml Myelin-Basisprotein,”, “etwa 500” for “etwa 50”

[5] = target: MAPK1 (h) (Homo sapiens, UniProt P27361); assay: Kinase inhibition assay: MAPK1; details: 30µM Testsubstanz (100 µM ATP); read-out: Hemmung von Kinasen in % MAPK1 (h)
Sequence of MAPK1 (h) (P27361 whole entry): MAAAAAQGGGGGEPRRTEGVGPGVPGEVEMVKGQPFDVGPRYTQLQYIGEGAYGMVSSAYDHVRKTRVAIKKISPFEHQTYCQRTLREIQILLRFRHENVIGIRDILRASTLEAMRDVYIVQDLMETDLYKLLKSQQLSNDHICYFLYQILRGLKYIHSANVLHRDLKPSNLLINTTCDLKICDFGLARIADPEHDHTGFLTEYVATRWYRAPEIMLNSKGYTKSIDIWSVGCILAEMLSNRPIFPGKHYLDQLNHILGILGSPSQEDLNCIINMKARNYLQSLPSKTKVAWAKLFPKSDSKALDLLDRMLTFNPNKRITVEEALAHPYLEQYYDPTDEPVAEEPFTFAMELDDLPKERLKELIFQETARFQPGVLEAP
Description: as §1, §2

[6] = target: MAPK2 (h) (Homo sapiens, UniProt P28482); assay: Kinase inhibition assay: MAPK2; details: 30µM Testsubstanz (100 µM ATP); read-out: Hemmung von Kinasen in % MAPK2 (h)
Sequence of MAPK2 (h) (P28482 whole entry): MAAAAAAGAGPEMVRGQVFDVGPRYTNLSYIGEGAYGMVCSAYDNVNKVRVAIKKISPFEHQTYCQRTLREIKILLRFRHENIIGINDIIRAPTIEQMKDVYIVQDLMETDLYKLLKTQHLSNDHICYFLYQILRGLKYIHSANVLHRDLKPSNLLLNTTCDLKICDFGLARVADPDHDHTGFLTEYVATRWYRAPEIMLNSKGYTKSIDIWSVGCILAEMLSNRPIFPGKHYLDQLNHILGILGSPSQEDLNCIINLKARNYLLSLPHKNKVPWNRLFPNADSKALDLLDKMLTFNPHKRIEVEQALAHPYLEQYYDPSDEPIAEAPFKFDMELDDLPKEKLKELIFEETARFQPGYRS
Description: as §1, §2

[7] = target: MEK1 (h) (Homo sapiens, UniProt Q02750); assay: Kinase inhibition assay: MEK1 (coupled to MAPK2 assay); details: 30µM Testsubstanz (100 µM ATP); read-out: Hemmung von Kinasen in % MEK1 (h)
Sequence of MEK1 (h) (Q02750 whole entry): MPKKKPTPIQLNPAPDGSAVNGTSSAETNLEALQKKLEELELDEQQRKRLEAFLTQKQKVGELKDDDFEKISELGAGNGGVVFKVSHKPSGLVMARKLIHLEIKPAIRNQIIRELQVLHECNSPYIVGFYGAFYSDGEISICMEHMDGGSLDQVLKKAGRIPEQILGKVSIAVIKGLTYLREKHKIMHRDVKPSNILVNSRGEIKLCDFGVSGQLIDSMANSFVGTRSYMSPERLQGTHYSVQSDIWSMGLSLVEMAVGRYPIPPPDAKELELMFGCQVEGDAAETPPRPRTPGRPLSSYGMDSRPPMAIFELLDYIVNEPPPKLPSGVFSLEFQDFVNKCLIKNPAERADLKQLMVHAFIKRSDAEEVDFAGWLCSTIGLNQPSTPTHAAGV
Method: as §1, §2
MEK1 (h)(1-5 mU) in einem Endreaktionsvolumen von 25 µl wird mit 50 mM Tris pH 7.5, 0.2 mM EGTA, 0.1 % b-Mercaptoethanol, 0,01 % Brij-35, 1 µM inaktives MAPK2 (m), 10 mM MgAcetat und kaltem ATP inkubiert (Konzentration wie erforderlich). Die Reaktion wird durch Zugabe von MgATB initiiert. Nach 40-minütiger Inkubation bei Raumtemperatur werden […] dieses Inkubationsgemisches dazu verwendet, den oben beschriebenen MAPK2-Assay zu initiieren.

[8] = tested on: PKA (h); assay: Kinase inhibition assay (33P-ATP, P30 filter, scintillation counting): PKA; details: 30µM Testsubstanz (100 µM ATP); 40 min
[9] = target: PKB (h) (Homo sapiens, UniProt P31749); assay: Kinase inhibition assay (33P-ATP, P30 filter, scintillation counting): PKB; details: 40 min; 30µM Testsubstanz (100 µM ATP); read-out: Hemmung von Kinasen in % PKB (h)
Sequence of PKB (h) (P31749 whole entry): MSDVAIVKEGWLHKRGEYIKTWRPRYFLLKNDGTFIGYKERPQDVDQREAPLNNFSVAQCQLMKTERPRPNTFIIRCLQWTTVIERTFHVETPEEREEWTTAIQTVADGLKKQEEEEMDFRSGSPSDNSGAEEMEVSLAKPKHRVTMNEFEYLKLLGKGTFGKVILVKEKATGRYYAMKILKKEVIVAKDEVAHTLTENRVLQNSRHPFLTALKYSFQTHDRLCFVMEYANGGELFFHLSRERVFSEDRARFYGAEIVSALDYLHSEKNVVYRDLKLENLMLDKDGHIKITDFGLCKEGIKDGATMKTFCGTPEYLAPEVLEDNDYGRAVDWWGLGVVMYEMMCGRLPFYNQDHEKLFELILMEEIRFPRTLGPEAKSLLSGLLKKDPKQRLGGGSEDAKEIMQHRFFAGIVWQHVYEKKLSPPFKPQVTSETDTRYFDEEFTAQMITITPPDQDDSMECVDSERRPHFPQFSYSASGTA
Method: as §1, §2
as §3, with “PKBα (h)(5-10mU) wird in” for “c-RAF (ha)(5-10 mU) in”, “µl” for “µl wird”, “mit 8” for “mit 25”, “mM MOPS” for “mM Tris”, “pH 7.0, 0.2” for “pH 7.5,.0.02”, “mM EDTRA, 30 µM GRPRTSSFAEGKK,” for “mM EGTA, 0.66 mg/ml Myelin-Basisprotein,”

[10] = tested on: ROCKII (h); assay: Kinase inhibition assay (33P-ATP, P30 filter, scintillation counting): ROCK-II; details: 30µM Testsubstanz (100 µM ATP); 40 min
[11] = target: SAPK2a (h) (Homo sapiens, UniProt Q16539); assay: Kinase inhibition assay (33P-ATP, P30 filter, scintillation counting): SAPK2a; details: 30µM Testsubstanz (100 µM ATP); read-out: Hemmung von Kinasen in % SAPK2a (h)
Sequence of SAPK2a (h) (Q16539 whole entry): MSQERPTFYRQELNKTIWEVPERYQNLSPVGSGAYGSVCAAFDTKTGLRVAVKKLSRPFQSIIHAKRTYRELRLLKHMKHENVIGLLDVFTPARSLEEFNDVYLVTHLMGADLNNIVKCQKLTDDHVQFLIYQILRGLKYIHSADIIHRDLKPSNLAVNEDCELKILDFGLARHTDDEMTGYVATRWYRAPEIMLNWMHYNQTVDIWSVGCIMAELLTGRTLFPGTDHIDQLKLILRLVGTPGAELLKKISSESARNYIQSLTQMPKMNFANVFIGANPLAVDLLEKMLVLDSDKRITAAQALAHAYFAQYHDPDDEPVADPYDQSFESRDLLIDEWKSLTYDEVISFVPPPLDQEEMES
Method: as §1, §2
as §3, with “SAPK2a (h) wird” for “c-RAF (ha)(5-10 mU)”, “µl” for “µl wird”, “7,5, 0.02” for “7.5,.0.02”, “0.33” for “0.66”

Sequence of c-RAF (h) (P04049 whole entry): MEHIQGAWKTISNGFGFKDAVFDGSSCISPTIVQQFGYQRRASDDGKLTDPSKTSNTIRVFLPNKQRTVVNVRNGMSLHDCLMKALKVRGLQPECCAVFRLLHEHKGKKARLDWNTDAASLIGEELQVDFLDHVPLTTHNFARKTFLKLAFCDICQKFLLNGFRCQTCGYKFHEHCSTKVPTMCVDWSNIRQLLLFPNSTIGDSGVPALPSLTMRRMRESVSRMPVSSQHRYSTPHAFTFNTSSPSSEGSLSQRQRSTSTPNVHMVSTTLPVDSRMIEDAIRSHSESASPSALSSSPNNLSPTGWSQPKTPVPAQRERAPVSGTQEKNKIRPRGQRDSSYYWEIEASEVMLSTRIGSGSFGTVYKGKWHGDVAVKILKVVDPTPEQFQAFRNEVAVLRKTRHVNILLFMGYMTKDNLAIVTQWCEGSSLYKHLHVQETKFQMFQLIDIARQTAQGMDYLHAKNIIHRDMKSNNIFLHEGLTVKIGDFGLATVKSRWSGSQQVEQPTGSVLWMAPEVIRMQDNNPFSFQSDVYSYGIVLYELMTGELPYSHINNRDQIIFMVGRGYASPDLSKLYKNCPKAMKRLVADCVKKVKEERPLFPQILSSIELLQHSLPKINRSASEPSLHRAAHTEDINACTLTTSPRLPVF

Compound | inhibition at 30 µM [1] [%] | inhibition at 30 µM [2] [%] | inhibition at 30 µM [3] [%] | inhibition at 30 µM [4] [%] | inhibition at 30 µM [5] [%] | inhibition at 30 µM [6] [%] | inhibition at 30 µM [7] [%] | Hemmung von Kinasen in % PKA (h) [8] [%] | inhibition at 30 µM [9] [%] | Hemmung von Kinasen in % ROCKII (h) [10] [%] | inhibition at 30 µM [11] [%]
C(=Cc1ncnc2[nH]cnc12)c1ccccc1 [Verbd. 72, 6-Styryl-9H-purin] | 66 | 20 | 2 | 37 | 50 | 20 | 7 | 4 | 7 | 22 | 17
Fc1ccc(Sc2ncnc3c2ncn3Cc2ccccc2)cc1 [Verbd. 75, 9-Benzyl-6-(4-fluoro-phenylsulfanyl)-9H-purin] | 0 | 0 | 0 | 16 | 0 | 0 | 4 | 0 | 1 | 5 | 64
c1ccc(CSc2ncnc3[nH]cnc23)cc1 [Verbd. 9, 6-Benzylsulfanyl-9H-purin] | 53 | 35 | 7 | 22 | 15 | 12 | 7 | 13 | 4 | 28 | 50
Fc1ccc(Cn2cnc3c(Sc4ccccc4)ncnc32)cc1 [Verbd. 76, 9-(4-Fluoro-benzyl)-6-phenylsulfanyl-9H-purin] | 0 | 0 | 0 | 12 | 17 | 0 | 1 | 0 | 13 | 2 | 67
Cn1cnc2c(Nc3ccc(F)cc3)ncnc21 [Verbd. 14, (4-Fluoro-phenyl)-(9-methyl-9H-purin-6-yl)-amin] | 27 | 14 | 19 | 9 | 36 | 57 | 8 | 0 | 0 | 7 | 13
Fc1ccc(CSc2ncnc3[nH]cnc23)cc1 [Verbd. 10, 6-(4-Fluoro-benzylsulfanyl)-9H-purin] | 47 | 0 | 12 | 16 | 9 | 5 | 0 |  | 6 | 18 | 29
Cn1c(-c2ccc([S+](C)[O-])cc2)nc2c(Sc3ccc(F)cc3)ncnc21 (centres unmarked) [Verbd. 60, 6-(4-Fluoro-phenylsulfanyl)-8-(4-methan-sulfinyl-phenyl)-9-methyl-9H-purin] | 4 | 4 | 10 | 30 | 0 | 0 | 1 | 4 | 10 | 0 | 44
Cn1c(C#CCCO)nc2c(Sc3ccccc3)ncnc21 [Verbd. 79, 4-(9-Methyl-6-phenylsulfanyl-9H-purin-8-yl)-but-3-yn-1-ol] | 0 | 0 | 0 | 11 | 0 | 0 | 0 | 0 | 33 | 0 | 3
Cn1c(-c2ccccc2)nc2c(Sc3ccccc3)ncnc21 [Verbd. 23, 9-Methyl-8-phenyl-6-phenylsulfanyl-9H-purin] | 12 | 0 | 12 | 5 | 10 | 0 | 4 | 3 | 42 | 1 | 44
Fc1ccc(Nc2ncnc3[nH]cnc23)cc1 [Verbd. 2, (4-Fluoro-phenyl)-(9H-purin-6-yl)-amin] | 24 | 13 | 10 | 42 | 33 | 48 | 34 | 40 | 18 | 52 | 30
COc1ncnc2ncn(Cc3ccc(F)cc3)c12 [Verbd. 44, 7-(4-Fluoro-benzyl)-6-methoxy-7H-purin] | 0 | 5 | 30 | 0 | 19 | 3 | 3 | 7 | 0 | 1 | 8
Cn1c(-c2ccc([S+](C)[O-])cc2)nc2c(Sc3ccccc3)ncnc21 (centres unmarked) [Verbd. 59, 8-(4-Methansulfinyl-phenyl)-9-methyl-6-phenylsulfanyl-9H-purin] | 0 | 4 | 6 | 30 | 0 | 0 | 3 | 0 | 4 | 1 | 27
